Assay results: article PMC2171038 (Traffic (Copenhagen, Denmark), 2007)

Molecular target: T1, protoporphyrinogen oxidase (Saccharomyces cerevisiae, UniProt P40012)
T1 sequence (P40012 1-539): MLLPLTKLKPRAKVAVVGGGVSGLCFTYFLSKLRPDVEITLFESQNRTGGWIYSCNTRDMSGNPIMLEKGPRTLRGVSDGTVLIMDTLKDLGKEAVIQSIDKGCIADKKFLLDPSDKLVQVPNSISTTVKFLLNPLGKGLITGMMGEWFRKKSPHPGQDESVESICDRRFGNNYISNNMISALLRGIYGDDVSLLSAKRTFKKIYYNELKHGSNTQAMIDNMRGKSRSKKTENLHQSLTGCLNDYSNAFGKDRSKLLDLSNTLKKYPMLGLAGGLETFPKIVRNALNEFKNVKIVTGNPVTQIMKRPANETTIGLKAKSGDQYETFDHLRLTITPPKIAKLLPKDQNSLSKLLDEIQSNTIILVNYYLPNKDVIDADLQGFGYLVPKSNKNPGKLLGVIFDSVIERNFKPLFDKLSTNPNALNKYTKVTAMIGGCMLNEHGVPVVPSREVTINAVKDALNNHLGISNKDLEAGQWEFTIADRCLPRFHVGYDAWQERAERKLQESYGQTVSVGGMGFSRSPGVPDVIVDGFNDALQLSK
Experiment: fluorimetric protoporphyrinogen oxidase activity assay
Assay type: biochemical

## CC(=O)N(O)CCCCCNC(=O)CCC(=O)N(O)CCCCCNC(=O)CCC(=O)N(O)CCCCCNC(=O)c1cc(Oc2ccc(C(F)(F)F)cc2Cl)ccc1[N+](=O)[O-] [compound 1, DFOB-AF]
  IC50: ~100 nM
